The values below come from US4280993A, “Process for determining the concentration of benzodiazepines in a body fluid” (priority 1978, dated 1981).

The test system of experiment [1] is receptor powder (ox brain tissue), ^3 H-flunitrazepam binding. Briefly: Displacement of 3H-flunitrazepam from freeze-dried ox brain receptor powder (lorazepam standard curve). Particulars: for Counts per minute: 50 μl added, bound 3H-flunitrazepam. As to the method: (a) A 25 mM solution of a sodium phosphate buffer, pH 7.0 (Solution I).
(b) A solution containing 18 ng and 5 μCi of ^3 H-flunitrazepam in 10 ml of 10% ethanol in Solution I (Solution II).
(c) About 0.3 g of a receptor powder, prepared as described below, suspended in 30 ml of Solution I (Suspension III).
(d) A standard solution (IV) containing 20 ng/ml of lorazepam, and prepared by dilution with the buffer I of 0.5 ml of 93% ethanolic solution (IVa) of lorazepam, containing 1 μg/ml of lorazepam, to a volume of 25 ml.
To 15 ml test tubes, each containing 400 μl of the receptor suspension III, are added 100 μl of Solution II and 50 μl of the sample, or 50 μl of the standard solution IV. The tubes are incubated at room temperature for at least 20 minutes and maximum 2 hours. Then, 10 ml of isothermic I are added, and the mixture is immediately filtered through a Whatman GF/C glassfibre filter and washed with 10 ml of isothermic buffer solution I.
The washed filter is placed in a scintillation vial, containing 5 ml of conventional scintillation fluid, and counted shortly after for 0.5 minute, or better the next day for 5 minutes.
For the preparation of a standard curve, a series of dilutions of the lorazepam standard solution (IV) is prepared by diluting with the buffer I, and assaying is performed in duplicate with 50 μl of each of these dilutions being added to the test tubes, each of which contains 400 μl of the suspension III and 100 μl of the solution II.
The average of counts co from the controls is 3187 from which is subtracted the average of the counts from the blanks, which is 160, to give co -cblank.
The count cx from each sample also has to be reduced by the average counts from the blanks, resulting from background radiation, to give cx -cblank.
In the accompanying drawing, the test results are plotted as co -cblank/cx -cblank versus the concentration of lorazepam, and the standard curve, therefore, can be used for quantitative determination of the benzodiazepine contents of samples.
The receptor powder used in the process described above was ox brain tissue which had been homogenized in 3 volumes of iced 1M sucrose solution whereafter the homogenate had been freeze-dried.

The subject of experiment [2] is dopamine receptor sites in mamalian brain. As to conditions: cited from earlier work.

`O=C1Nc2ccc(Cl)cc2C(c2ccccc2Cl)=NC1O` (stereo not drawn) [lorazepam, 7-chloro-5-(2-chlorophenyl)-3-hydroxy-2,3-dihydro-1H-1,4-benzodiazepin-2-one]: the “c o - cblank / c x - cblank” value in experiment [1] (drug 6.25 ng/ml) came out at 1.41; in experiment [1] (drug 12.5 ng/ml) it was 1.73; in experiment [1] (drug 25 ng/ml), 2.30; in experiment [1] (drug 62.5 ng/ml), 3.86; in experiment [1] (drug 125 ng/ml), 6.87; in experiment [1] (drug 250 ng/ml), 12.51. Moreover, the Counts per minute in experiment [1] (drug 6.25 ng/ml) is reported as 2313 counts per minute; in experiment [1] (drug 12.5 ng/ml), 1910 counts per minute; in experiment [1] (drug 25 ng/ml), 1477 counts per minute; in experiment [1] (drug 62.5 ng/ml), 944 counts per minute; in experiment [1] (drug 125 ng/ml), 601 counts per minute.

`O=C(CCCN1CCC2(CC1)C(=O)NCN2c1ccccc1)c1ccc(F)cc1` [^3 H-spiroperidol]: the “binding to dopamine receptor sites” value in experiment [2] was “bind selectively and with high affinity”.
